From patent publication US20070167427A1, “1,2,4-Triazolo[4,3-a]pyridines useful in the treatment of gastrointestinal disorders” (Altana Pharma AG, priority 2004, published 2007) come the findings set out here.

Data set [1] has as its system pentagastrin-stimulated acid secretion of the perfused rat stomach. Description: Secretion-inhibiting action on the perfused rat stomach (pentagastrin-stimulated acid secretion, intraduodenal administration in vivo). The note with it: anesthetized female CD rat, dose 1.0 μmol/kg i.d. From the text: Testing of the Secretion-inhibiting Action on the Perfused Rat Stomach
In Table A which follows, the influence of the compounds according to the invention on the pentagastrin-stimulated acid secretion of the perfused rat stomach after intraduodenal administration in vivo is shown.
The abdomen of anesthetized rats (CD rat, female, 200-250 g; 1.5 g/kg i.m. urethane) was opened after tracheotomy by a median upper abdominal incision and a PVC catheter was fixed transorally in the esophagus and another via the pylorus such that the ends of the tubes just projected into the gastric lumen. The catheter leading from the pylorus led outward into the right abdominal wall through a side opening.
After thorough rinsing (about 50-100 ml), warm (37° C.) physiological NaCl solution was continuously passed through the stomach (0.5 ml/min, pH 6.8-6.9; Braun-Unita I). The pH (pH meter 632, glass electrode EA 147; φ=5 mm, Metrohm) and, by titration with a freshly prepared 0.01N NaOH solution to pH 7 (Dosimat 665 Metrohm), the secreted HCl were determined in the effluent in each case collected at an interval of 15 minutes.
The gastric secretion was stimulated by continuous infusion of […] (=1.65 ml/h) of i.v. pentagastrin (left femoral vein) about 30 min after the end of the operation (i.e. after determination of 2 preliminary fractions). […]

One may read the melting point as the temperature, or range, at which the solid turns liquid.

Compound `CCc1cccc(C)c1CNc1cc(C(=O)OC)cn2c(C)nnc12` [Example 1, 8-(2-Ethyl-6-methyl-benzylamino)-3-methyl[1,2,4]triazolo[4,3-a]pyridine-6-carboxylic acid methyl ester] returned a melting point of 214.4 °C.
In the case of `CCc1cccc(C)c1CNc1cc(C(=O)NCCOC)cn2c(C)nnc12` [Example 4, 8-(2-Ethyl-6-methylbenzylamino)-N-(2-methoxyethyl)-3-methyl[1,2,4]triazolo-[4,3-a]pyridine-6-arboxamide], the “Inhibition of acid secretion” value in data set [1] is on record as over 30%.
`CCc1cccc(C)c1CNc1cc(C(=O)O)cn2c(C)nnc12` [Example 2, 8-(2-Ethyl-6-methyl-benzylamino)-3-methyl[1,2,4]triazolo[4,3-a]pyridine-6-carboxylic acid]: the melting point is 328.1 °C.
On to `CCc1cccc(C)c1CNc1cc(C(=O)N(C)C)cn2c(C)nnc12` [Example 3, 8-(2-Ethyl-6-methylbenzylamino)-N,N,3-trimethyl[1,2,4]triazolo[4,3-a]pyridine-6-carboxamide], for which the melting point stood at 201.3 °C. Besides, the “Inhibition of acid secretion” value in data set [1] is listed as over 30%.
